Measured values published in patent US8501755B2, “Tetrahydropyridothienopyrimidine compounds and methods of use thereof” (Bayer Intellectual Property GmbH, priority 2006, dated 2013).

How the values were obtained:
Type in all cases: cell-based
N87 = assay: In vitro tumor cell proliferation assay (Cell Titer-Glo) in N87 cells; conditions: N87 human gastric carcinoma overexpressing HER2 and HER1; 72 hours exposure; read-out: IC50, activities in N87 cell lines
Summary of the method: (§1)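 Viability after 72 h drug exposure at 37 °C was read as CellTiter-Glo ATP luminescence, giving IC50. Cells (2.5×10^3/well, RPMI + 10% FBS) were compound-treated one day post-seeding, 0.1% DMSO final: A431 overexpresses HER1, N87 overexpresses HER2 and HER1.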

H1975 cells = assay: In vitro tumor cell proliferation assay (Cell Titer-Glo) in H1975 cells; conditions: NCI-H1975; H1975 human NSCLC expressing mutant HER1 (L858R,T790M); 72 hours exposure; read-out: IC50, activities in H 1975 cell lines
Summary of the method: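 After 72 h compound exposure at 37° C (top 10 uM down to 64 pM, 0.1% DMSO), viability of EGFR L858R/T790M-mutant H1975 cells was read as ATP luminescence.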

A431 cells = assay: In vitro tumor cell proliferation assay (Cell Titer-Glo) in A431 cells; conditions: Homo sapiens, A-431, 72 h, A431 human epidermoid carcinoma overexpressing HER1; 72 hours exposure; read-out: IC50, activities in A431 cell lines
Summary of the method: as §1

SMILES | IC50 (N87) [nM] | IC50 (H1975 cells) [nM] | IC50 (A431 cells) [nM]
O=C(/C=C/CN1CCOCC1)N1CCc2c(sc3ncnc(Nc4ccc5c(cnn5Cc5cccc(F)c5)c4)c23)C1 [Example 102, N-[1-(3-fluorobenzyl)-1H-indazol-5-yl]-7-[(2E)-4-morpholin-4-ylbut-2-enoyl]-5,6,7,8-tetrahydropyrido [4′,3′:4,5]thieno[2,3-d]pyrimidin-4-amine] | < 200 | 1000 to 10000 | 200 to 1000
O=C(/C=C/CN1CCOCC1)N1CCc2c(sc3ncnc(Nc4ccc5c(cnn5Cc5ccccc5)c4)c23)C1 [Example 103, N-(1-benzyl-1H-indazol-5-yl)-7-[(2E)-4-morpholin-4-ylbut-2-enoyl]-5,6,7,8-tetrahydropyrido [4′,3′:4,5]thieno[2,3-d]pyrimidin-4-amine] | < 200 | 1000 to 10000 | 200 to 1000
O=C(/C=C/CN1CCCCC1)N1CCc2c(sc3ncnc(Nc4ccc5c(cnn5Cc5ccccc5)c4)c23)C1 [Example 104, N-(1-benzyl-1H-indazol-5-yl)-7-[(2E)-4-piperidin-1-ylbut-2-enoyl]-5,6,7,8-tetrahydropyrido [4′,3′:4,5]thieno[2,3-d]pyrimidin-4-amine] | < 200 | 200 to 1000 | 200 to 1000
O=C(/C=C/CN1CCOCC1)N1CCc2c(sc3ncnc(Nc4ccc5c(ccn5Cc5ccccc5)c4)c23)C1 [Example 105, N-(1-benzyl-1H-indol-5-yl)-7-[(2E)-4-morpholin-4-ylbut-2-enoyl]-5,6,7,8-tetrahydropyrido [4′,3′:4,5]thieno[2,3-d]pyrimidin-4-amine] | < 200 | 200 to 1000 | < 200
O=C(/C=C/CN1CCCCC1)N1CCc2c(sc3ncnc(Nc4ccc5c(ccn5Cc5cccc(F)c5)c4)c23)C1 [Example 106, N-[1-(3-fluorobenzyl)-1H-indol-5-yl)-7-[(2E)-4-piperidin-1-ylbut-2-enoyl]-5,6,7,8-tetrahydropyrido [4′,3′:4,5]thieno[2,3-d]pyrimidin-4-amine] | < 200 | 200 to 1000 | < 200
CC(C)N(C)C/C=C/C(=O)N1CCc2c(sc3ncnc(Nc4ccc5c(cnn5Cc5ccccc5)c4)c23)C1 [Example 107, N-(1-benzyl-1H-indazol-5-yl)-7-{(2E)-4-[isopropyl(methyl)amino]but-2-enoyl}-5,6,7,8-tetrahydropyrido [4′,3′:4,5]thieno[2,3-d]pyrimidin-4-amine] | < 200 | < 200 | < 200
O=C(/C=C/CN1CCOCC1)N1CCc2c(sc3ncnc(Nc4ccc5c(ccn5Cc5cccc(F)c5)c4)c23)C1 [Example 108, N-[1-(3-fluorobenzyl)-1H-indol-5-yl]-7-[(2E)-4-morpholin-4-ylbut-2-enoyl]-5,6,7,8-tetrahydropyrido [4′,3′:4,5]thieno[2,3-d]pyrimidin-4-amine] | < 200 | 200 to 1000 | < 200
CN(C)C/C=C/C(=O)N1CCc2c(sc3ncnc(Nc4ccc5c(cnn5Cc5ccccn5)c4)c23)C1 [Example 109, 7-[(2E)-4-(dimethylamino)but-2-enoyl]-N-[1-(pyridin-2-ylmethyl)-1H-indazol-5-yl]-5,6,7,8-tetrahydropyrido [4′,3′:4,5]thieno[2,3-d]pyrimidin-4-amine] | < 200 | 200 to 1000 | 200 to 1000
CCN(CC)C/C=C/C(=O)N1CCc2c(sc3ncnc(Nc4ccc5c(cnn5Cc5ccccn5)c4)c23)C1 [Example 111, 7-[(2E)-4-(diethylamino)but-2-enoyl]-N-[1-(pyridin-2-ylmethyl)-1H-indazol-5-yl]-5,6,7,8-tetrahydropyrido [4′,3′:4,5]thieno[2,3-d]pyrimidin-4-amine] | < 200 | 200 to 1000 | 200 to 1000
O=C(/C=C/CN1CCCCC1)N1CCc2c(sc3ncnc(Nc4ccc5c(cnn5Cc5ccccn5)c4)c23)C1 [Example 112, 7-[(2E)-4-piperidin-1-ylbut-2-enoy]-N-[1-(pyridin-2-ylmethyl)-1H-indazol-5-yl]-5,6,7,8-tetrahydropyrido [4′,3′:4,5]thieno[2,3-d]pyrimidin-4-amine] | < 200 | 200 to 1000 | 200 to 1000
O=C(/C=C/CN1CCOCC1)N1CCc2c(sc3ncnc(Nc4ccc5c(cnn5Cc5ccccn5)c4)c23)C1 [Example 113, 7-[(2E)-4-morpholin-4-ylbut-2-enoyl]-N-[1-(pyridin-2-ylmethyl)-1H-indazol-5-yl]-5,6,7,8-tetrahydropyrido [4′,3′:4,5]thieno[2,3-d]pyrimidin-4-amine] | < 200 | 200 to 1000 | 200 to 1000
O=C(/C=C/CN1CCCCC1)N1CCc2c(sc3ncnc(Nc4ccc5c(ccn5Cc5ccccn5)c4)c23)C1 [Example 114, 7-[(2E)-4-piperidin-1-ylbut-2-enoyl]-N-[1-(pyridin-2-ylmethyl)-1H-indol-5-yl]-5,6,7,8-tetrahydropyrido [4′,3′:4,5]thieno[2,3-d]pyrimidin-4-amine] | < 200 | < 200 | < 200
CCN(C)C/C=C/C(=O)N1CCc2c(sc3ncnc(Nc4ccc5c(cnn5Cc5cccc(F)c5)c4)c23)C1 [Example 115, 7-{(2E)-4-[ethyl(methyl)amino]but-2-enoyl}-N-[1-(3-fluorobenzyl)-1H-indazol-5-yl]-5,6,7,8-tetrahydropyrido [4′,3′:4,5]thieno[2,3-d]pyrimidin-4-amine] | < 200 | < 200 | < 200
CC(C)N(C)C/C=C/C(=O)N1CCc2c(sc3ncnc(Nc4ccc5c(cnn5Cc5ccccn5)c4)c23)C1 [Example 116, 7-{(2E)-4-[isopropyl(methyl)amino]but-2-enoyl}-N-[1-(pyridin-2-ylmethyl)-1H-indazol-5-yl]-5,6,7,8-tetrahydropyrido [4′,3′:4,5] thieno[2,3-d]pyrimidin-4-amine] | < 200 | 200 to 1000 | 200 to 1000
CC(C)N(C)C/C=C/C(=O)N1CCc2c(sc3ncnc(Nc4ccc5c(ccn5Cc5ccccn5)c4)c23)C1 [Example 117, 7-{(2E)-4-[isopropyl(methyl)amino]but-2-enoyl}-N-[1-(pyridin-2-ylmethyl)-1H-indol-5-yl]-5,6,7,8-tetrahydropyrido [4′,3′:4,5]thieno[2,3-d]pyrimidin-4-amine] | < 200 | < 200 | 200 to 1000
CC(C)N(C)C/C=C/C(=O)N1CCc2c(sc3ncnc(Nc4ccc5c(ccn5Cc5ccccc5)c4)c23)C1 [Example 118, N-(1-benzyl-1H-indol-5-yl)-7-{(2E)-4-[isopropyl(methyl)amino]but-2-enoyl}-5,6,7,8-tetrahydropyrido [4′,3′:4,5]thieno[2,3-d]pyrimidin-4-amine] | < 200 | < 200 | < 200
CCN(CC)C/C=C/C(=O)N1CCc2c(sc3ncnc(Nc4ccc5c(ccn5Cc5ccccn5)c4)c23)C1 [Example 121, 7-[(2E)-4-(diethylamino)but-2-enoyl]-N-[1-(pyridin-2-ylmethyl)-1H-indol-5-yl]-5,6,7,8-tetrahydropyrido [4′,3′:4,5]thieno[2,3-d]pyrimidin-4-amine] | < 200 | 200 to 1000 | 200 to 1000
CC(C)N(C)C/C=C/C(=O)N1CCc2c(sc3ncnc(Nc4ccc5c(ccn5Cc5cccc(F)c5)c4)c23)C1 [Example 122, N-[1-(3-fluorobenzyl)-1H-indol-5-yl]-7-{(2E)-4-[isopropyl(methyl)amino]but-2-enoyl}-5,6,7,8-tetrahydropyrido [4′,3′:4,5]thieno[2,3-d]pyrimidin-4-amine] | < 200 | < 200 | 200 to 1000
CC(C)N(C)C/C=C/C(=O)N1CCc2c(sc3ncnc(Nc4ccc5c(cnn5Cc5cccc(F)c5)c4)c23)C1 [Example 123, N-[1-(3-fluorobenzyl)-1H-indazol-5-yl]-7-{(2E)-4-[isopropyl(methyl)amino]but-2-enoyl}-5,6,7,8-tetrahydropyrido [4′,3′:4,5]thieno[2,3-d]pyrimidin-4-amine] | < 200 | < 200 | < 200
CN(C/C=C/C(=O)N1CCc2c(sc3ncnc(Nc4ccc5c(cnn5Cc5cccc(F)c5)c4)c23)C1)C(C)(C)C [Example 124, 7-{(2E)-4-[tert-butyl(methyl)amino]but-2-enoyl}-N-[1-(3-fluorobenzyl)-1H-indazol-5-yl]-5,6,7,8-tetrahydropyrido [4′,3′:4,5]thieno[2,3-d]pyrimidin-4-amine] | < 200 | < 200 | < 200
CN(C/C=C/C(=O)N1CCc2c(sc3ncnc(Nc4ccc5c(ccn5Cc5cccc(F)c5)c4)c23)C1)C(C)(C)C [Example 125, 7-{(2E)-4-[tert-butyl(methyl)amino]but-2-enoyl}-N-[1-(3-fluorobenzyl)-1H-indol-5-yl]-5,6,7,8-tetrahydropyrido [4′,3′:4,5]thieno[2,3-d]pyrimidin-4-amine] | < 200 | 200 to 1000 | 200 to 1000
CN(C/C=C/C(=O)N1CCc2c(sc3ncnc(Nc4ccc5c(cnn5Cc5ccccc5)c4)c23)C1)C(C)(C)C [Example 126, N-(1-benzyl-1H-indazol-5-yl)-7-{(2E)-4-[tert-butyl(methyl)amino]but-2-enoyl}-5,6,7,8-tetrahydropyrido [4′,3′:4,5]thieno[2,3-d]pyrimidin-4-amine] | < 200 | < 200 | < 200
